According to patent US4027039A (priority 1975, dated 1977):
Values joined by “and” are separate entries in the source; they are usually repeats but may differ in a detail not shown here. Equal entries are not always repeated. Where two headings read alike, the source gives them in different places.

How the values were obtained:
polio and Vaccinia virus = settings: cytopathic effect; cited from earlier work
cells = experiment: Plaque reduction and cytotoxicity in cells; format: cell-based
Excerpt: It is well known in virology that cells injured due to toxic substances will not support the growth of viruses.

Herpes virus [1] = test system: Herpes virus
Influenza A PR8 virus = test system: Influenza A PR8 virus; design: toxicity at upper limit: dose or concentration left out as unconfirmed; settings: cited from earlier work
Mengo virus = Mengo virus in mice, oral; format: in vivo, mouse
Excerpt: The results are illustrated in Table 43.

Vaccinia virus [2] = test system: Vaccinia virus; design: species or system fertile eggs; settings: various concentrations
Influenza PR 8 virus [3] = experiment: Influenza PR 8 in mice, oral; schedule by table; late read day 6 (Table 37), 7 (33, 36), 8 (32, 35, 47), 10 (38); control fraction 18/20 (Table 32), 19/20 (Table 35), else 100%; format: in vivo, mouse
Influenza PR 8 virus [4] = experiment: Influenza PR 8 in mice, subcutaneous; late read day 6 (Table 37), 8 (Table 47); format: in vivo, mouse
viral infections = experiment: Antiviral screening in animals, general statements; settings: mouse, in vivo
Neurovaccinia virus = experiment: Neurovaccinia in mice; settings: single dose level, three instances
Herpes virus [5] = experiment: Herpes virus in chicken eggs, single dose 24 hours pre-infection; format: in vivo, chick embryo
Vaccinia IHD virus = format: in vivo, mouse
Influenza PR 8 virus [6] = experiment: Influenza PR 8 in mice, intraperitoneal (Table 47); format: in vivo, mouse
Vaccinia virus [7] = format: in vivo, rabbit
[8] = test system: Influenza, Ann Arbor virus; experiment: Influenza Ann Arbor in mice, oral; schedule by table; late read day 5 (Tables 15, 25, 29, 30), 6 (18, 20, 22, 23, 26, 27, 28, 54), 7 (14, 19, 21, 24, 53, 56), 8 (16, 17, 51), 9 (11, 55); format: in vivo, mouse

NN.O=S(=O)(O)O [Hydrazine Sulfate, hydrazine sulfate]
concentrations with antiviral activity (polio and Vaccinia virus): 8 to 66 µg/mL
toxic effects on the cells (cells; 10 to 100 mg/ml): toxic effects on the cells were clearly evident
antiviral activity, plaque reduction (cells; below the level of toxicity): no antiviral activity was demonstrated
No. animals surviving after 6-9 days (Herpes virus [1]; total dose 5 μg): 3
No. animals surviving after 6-9 days (Herpes virus [1]; total dose .0005 μg): 3
No. animals surviving when 100% (or given fraction) of controls are dead (Herpes virus [1]; total dose .0005 μg): 3
Survivors (Herpes virus [1]; total dose .0005 μg): 3
No. animals surviving after 6-9 days (Herpes virus [1]; total dose .005 μg): 4
No. animals surviving when 100% (or given fraction) of controls are dead (Herpes virus [1]; total dose .005 μg): 4
Survivors (Herpes virus [1]; total dose .005 μg): 4
No. animals surviving after 6-9 days (Herpes virus [1]; total dose .05 μg): 1
No. animals surviving when 100% (or given fraction) of controls are dead (Herpes virus [1]; total dose .05 μg): 1
Survivors (Herpes virus [1]; total dose .05 μg): 0
No. animals surviving after 6-9 days (Herpes virus [1]; total dose .5 μg): 3
Survivors (Herpes virus [1]; total dose .5 μg): 1

CC(C=NNC(=N)N)=NNC(=N)N [Methylgloxal-bis-guanylhydrazone]
toxicity at upper limit (Influenza A PR8 virus): toxic
inhibition (Influenza A PR8 virus; lower limit, 0.125 mg per ml): Ninety

NNC(N)=S [Thiosemicarbazide, thiosemicarbazide]
Survivors (Mengo virus; total dose .0000005 μg): 0
No. animals surviving after 6 days (Mengo virus; total dose .000005 μg): 2
No. animals surviving after 6 days (Mengo virus; total dose .00005 μg): 5
Survivors (Mengo virus; total dose .0005 μg): 0
Survivors (Mengo virus; total dose .005 μg): 0
effect on pox formation on the membrane (Vaccinia virus [2]): No effect
No. animals surviving after 6-10 days (Influenza PR 8 virus [3]; total dose 5 μg): 3
No. animals surviving after 6-10 days (Influenza PR 8 virus [3]; total dose .005 μg): 3
No. animals surviving when 100% (or given fraction) of controls are dead (Influenza PR 8 virus [3]; total dose .005 μg): 3
Survivors (Influenza PR 8 virus [3]; total dose .005 μg): 3
No. animals surviving when 100% (or given fraction) of controls are dead (Influenza PR 8 virus [3]; total dose .5 μg): 0
Survivors (Influenza PR 8 virus [3]; total dose .5 μg): 0
No. animals surviving after 6-8 days (Influenza PR 8 virus [4]; total dose 5 μg): 3
Survivors (Influenza PR 8 virus [4]; total dose 5 μg): 3
Survivors (Influenza PR 8 virus [4]; total dose .0005 μg): 0
Survivors (Influenza PR 8 virus [4]; total dose .005 μg): 0
activity in words (viral infections): active
surviving animals (Neurovaccinia virus): one
Deaths on day 1 (Herpes virus [5]; 2 μg): 3
Deaths on day 3 (Herpes virus [5]; 2 μg): 5
Deaths on day 4 (Herpes virus [5]; 2 μg): 3
No. dying 5-22 day (Herpes virus [5]; 2 μg): 0
No. living longer than controls (Herpes virus [5]; 2 μg): 0
Total deaths, 4th day (Herpes virus [5]; 2 μg): 12
Deaths on day 2 (Herpes virus [5]; 20 μg): 4
Deaths on day 3 (Herpes virus [5]; 20 μg): 6
No. dying 5-22 day (Herpes virus [5]; 20 μg): 0
No. living longer than controls (Herpes virus [5]; 20 μg): 0
Total deaths, 4th day (Herpes virus [5]; 20 μg): 12
Deaths on day 1 (Herpes virus [5]; .00005 μg): 2
Deaths on day 2 (Herpes virus [5]; .00005 μg): 5
Deaths on day 3 (Herpes virus [5]; .00005 μg): 2
No. dying 5-22 day (Herpes virus [5]; .00005 μg): 0
Total deaths, 4th day (Herpes virus [5]; .00005 μg): 10
Deaths on day 1 (Herpes virus [5]; .0005 μg): 2
Deaths on day 2 (Herpes virus [5]; .0005 μg): 3
Deaths on day 3 (Herpes virus [5]; .0005 μg): 2
Deaths on day 4 (Herpes virus [5]; .0005 μg): 3
No. dying 5-22 day (Herpes virus [5]; .0005 μg): 0
Total deaths, 4th day (Herpes virus [5]; .0005 μg): 10
Deaths on day 1 (Herpes virus [5]; .005 μg): 4
Deaths on day 2 (Herpes virus [5]; .005 μg): 3
Deaths on day 3 (Herpes virus [5]; .005 μg): 3
No. living longer than controls (Herpes virus [5]; .005 μg): 2
Total deaths, 4th day (Herpes virus [5]; .005 μg): 10
Deaths on day 2 (Herpes virus [5]; .05 μg): 3
Deaths on day 3 (Herpes virus [5]; .05 μg): 5
No. dying 5-22 day (Herpes virus [5]; .05 μg): 0
Total deaths, 4th day (Herpes virus [5]; .05 μg): 9
Deaths on day 1 (Herpes virus [5]; .5 μg): 3
Deaths on day 2 (Herpes virus [5]; .5 μg): 4
Deaths on day 3 (Herpes virus [5]; .5 μg): 2
Deaths on day 4 (Herpes virus [5]; .5 μg): 2
No. dying 5-22 day (Herpes virus [5]; .5 μg): 0
Total deaths, 4th day (Herpes virus [5]; .5 μg): 11
Total no. living longer than controls (Herpes virus [5]; all doses): 7
activity in words (Herpes virus [1]; mouse, in vivo): quite significant protection
No. animals surviving when 100% (or given fraction) of controls are dead (Herpes virus [1]; total dose .000005 μg): 0
Survivors (Herpes virus [1]; total dose .000005 μg): 0
No. animals surviving after 6-9 days (Herpes virus [1]; total dose .00005 μg): 6
No. animals surviving when 100% (or given fraction) of controls are dead (Herpes virus [1]; total dose .00005 μg): 3
Survivors (Herpes virus [1]; total dose .00005 μg): 3
No. animals surviving after 6-9 days (Herpes virus [1]; total dose .005 μg): 5 and 3 and 6
No. animals surviving after 6-9 days (Herpes virus [1]; total dose .5 μg): 3
Statistical Significance of Tail Lesions (Vaccinia IHD virus; 10 ng, day 12): < .05
Statistical Significance of Tail Lesions (Vaccinia IHD virus; 10 ng, day 14): < .05
Statistical Significance of Tail Lesions (Vaccinia IHD virus; 10 ng, day 17): < .05
Statistical Significance of Tail Lesions (Vaccinia IHD virus; 10 ng, day 21): < .05
Statistical Significance of Tail Lesions (Vaccinia IHD virus; 1 μg, day 5): < .01
Statistical Significance of Tail Lesions (Vaccinia IHD virus; 1 μg, day 6): < .01
Statistical Significance of Tail Lesions (Vaccinia IHD virus; 1 μg, day 7): < .01
Statistical Significance of Tail Lesions (Vaccinia IHD virus; 1 μg, day 8): < .01
Statistical Significance of Tail Lesions (Vaccinia IHD virus; 1 μg, day 10): < .01
Statistical Significance of Tail Lesions (Vaccinia IHD virus; 1 μg, day 11): < .01
Statistical Significance of Tail Lesions (Vaccinia IHD virus; 1 μg, day 12): < .01
Statistical Significance of Tail Lesions (Vaccinia IHD virus; 1 μg, day 14): < .01
Statistical Significance of Tail Lesions (Vaccinia IHD virus; 1 μg, day 17): < .01
Statistical Significance of Tail Lesions (Vaccinia IHD virus; 1 μg, day 21): < .01
Statistical Significance of Tail Lesions (Vaccinia IHD virus; 10 [μg], day 6): < .01
Statistical Significance of Tail Lesions (Vaccinia IHD virus; 10 [μg], day 10): < .05
Statistical Significance of Tail Lesions (Vaccinia IHD virus; 10 [μg], day 11): < .01
Statistical Significance of Tail Lesions (Vaccinia IHD virus; 10 [μg], day 12): < .01
Statistical Significance of Tail Lesions (Vaccinia IHD virus; 10 [μg], day 14): < .01
Statistical Significance of Tail Lesions (Vaccinia IHD virus; 10 [μg], day 17): < .01
Statistical Significance of Tail Lesions (Vaccinia IHD virus; 10 [μg], day 21): < .01
Statistical Significance of Tail Lesions (Vaccinia IHD virus; 100 [ng], day 8): < .05
Statistical Significance of Tail Lesions (Vaccinia IHD virus; 100 [ng], day 10): < .01
Statistical Significance of Tail Lesions (Vaccinia IHD virus; 100 [ng], day 11): < .01
Statistical Significance of Tail Lesions (Vaccinia IHD virus; 100 [ng], day 12): < .01
Statistical Significance of Tail Lesions (Vaccinia IHD virus; 100 [ng], day 14): < .01
Statistical Significance of Tail Lesions (Vaccinia IHD virus; 100 [ng], day 17): < .01
Statistical Significance of Tail Lesions (Vaccinia IHD virus; 100 [ng], day 21): < .01
Survivors (Influenza PR 8 virus [6]; total dose 5 μg): 0
Survivors (Influenza PR 8 virus [6]; total dose .005 μg): 0
Survivors (Influenza PR 8 virus [6]; total dose .05 μg): 0
Survivors (Influenza PR 8 virus [6]; total dose .5 μg): 0
approximate percentage confluency of the pox (Vaccinia virus [7]; 0.0000025 μg/kg, Test 2): 85%
approximate percentage confluency of the pox (Vaccinia virus [7]; 0.000025 μg/kg, Test 2): 25%
approximate percentage confluency of the pox (Vaccinia virus [7]; 0.00025 μg/kg, Test 2): 40%
approximate percentage confluency of the pox (Vaccinia virus [7]; 0.0025 μg/kg, Duplicate Experiments): 75% and 60%
approximate percentage confluency of the pox (Vaccinia virus [7]; 0.0025 μg/kg, Test 1): 2%
approximate percentage confluency of the pox (Vaccinia virus [7]; 0.0025 μg/kg, Test 2): 80%
approximate percentage confluency of the pox (Vaccinia virus [7]; 0.0025 μg/kg, Test 3): 85%
approximate percentage confluency of the pox (Vaccinia virus [7]; 0.025 μg/kg, Duplicate Experiments): 75% and 80%
approximate percentage confluency of the pox (Vaccinia virus [7]; 0.025 μg/kg, Test 1): 5%
approximate percentage confluency of the pox (Vaccinia virus [7]; 0.025 μg/kg, Test 2): 5%
approximate percentage confluency of the pox (Vaccinia virus [7]; 0.025 μg/kg, Test 3): 75% and 90%
approximate percentage confluency of the pox (Vaccinia virus [7]; 0.25 μg/kg, Test 1): 10%
approximate percentage confluency of the pox (Vaccinia virus [7]; 0.25 μg/kg, Test 2): 10%
approximate percentage confluency of the pox (Vaccinia virus [7]; 0.25 μg/kg, Test 3): 30% and 40%
approximate percentage confluency of the pox (Vaccinia virus [7]; 2.5 μg/kg, Duplicate Experiments): 30% and 20%
approximate percentage confluency of the pox (Vaccinia virus [7]; 2.5 μg/kg, Test 1): 50%
approximate percentage confluency of the pox (Vaccinia virus [7]; 2.5 μg/kg, Test 2): 80%
approximate percentage confluency of the pox (Vaccinia virus [7]; 2.5 μg/kg, Test 3): 30% and 20%
approximate percentage confluency of the pox (Vaccinia virus [7]; 25 μg/kg, Test 1): 80%
approximate percentage confluency of the pox (Vaccinia virus [7]; 25 μg/kg, Test 2): 10%
approximate percentage confluency of the pox (Vaccinia virus [7]; 250 μg/kg, Test 1): 80%
significance (T test) (Vaccinia virus [7]; dose 0.25 μg/kg): < .01
significance (T test) (Vaccinia virus [7]; dose 2.5 μg/kg): < .01
effect on pox formation (Vaccinia virus [7]; rabbit, in vivo): highly significant and reproducible protective effects
No. animals surviving after 5-9 days ([8]; total dose .05 μg): 5
No. animals surviving after 5-9 days ([8]; total dose .5 μg): 3
Survivors ([8]; total dose .5 μg): 0
No. animals surviving after 5-9 days ([8]; total dose .5 μg, listed as thiosemicarbazide): 7 and 6
